Measured values published in patent US20250241914A1, “BIFUNCTIONAL PHARMACEUTICAL COMPOUNDS” (DE MONTFORT UNIVERSITY, priority 2024, published 2025).

Assays:
[1] = test system: M. tuberculosis rifampicin resistant strain RpoBS522L (H37Rv); type: cell-based, Mycobacterium tuberculosis
[2] = test system: M. tuberculosis rifampicin-resistant strain RpoBS531L; type: cell-based, Mycobacterium tuberculosis

CO[C@H]1/C=C/O[C@@]2(C)Oc3c(C)c(O)c4c(O)c(c(CNCCCn5cc(CCn6cc(F)c(=O)[nH]c6=O)nn5)c(O)c4c3C2=O)NC(=O)/C(C)=C\C=C\[C@H](C)[C@H](C)[C@@H](C)[C@@H](O)[C@@H](C)[C@H](OC(C)=O)[C@@H]1C [Compound 3A]
Mycobacterium tuberculosis strain MIC90, RpoBS522L H37Rv [1]: 0.31 µM | Mycobacterium tuberculosis strain MIC90, RpoBS531L [2]: 0.22 µM

CO[C@H]1/C=C/O[C@@]2(C)Oc3c(C)c(O)c4c(O)c(c(CNCCOCCOCCOCn5cc(CCn6cc(F)c(=O)[nH]c6=O)nn5)c(O)c4c3C2=O)NC(=O)/C(C)=C\C=C\[C@H](C)[C@H](C)[C@@H](C)[C@@H](O)[C@@H](C)[C@H](OC(C)=O)[C@@H]1C [Compound 3B]
Mycobacterium tuberculosis strain MIC90, RpoBS522L H37Rv [1]: 0.32 µM | Mycobacterium tuberculosis strain MIC90, RpoBS531L [2]: 0.23 µM

CO[C@H]1/C=C/O[C@@]2(C)Oc3c(C)c(O)c4c(O)c(c(CNCCOCCOCCOCn5cc(CCCn6cc(F)c(=O)[nH]c6=O)nn5)c(O)c4c3C2=O)NC(=O)/C(C)=C\C=C\[C@H](C)[C@H](C)[C@@H](C)[C@@H](O)[C@@H](C)[C@H](OC(C)=O)[C@@H]1C [Compound 3C]
Mycobacterium tuberculosis strain MIC90, RpoBS522L H37Rv [1]: 0.47 µM | Mycobacterium tuberculosis strain MIC90, RpoBS531L [2]: 0.21 µM

NNC(=O)c1ccncc1 [Isoniazid, reference compound]
Mycobacterium tuberculosis strain MIC90, RpoBS522L H37Rv [1]: 0.29 µM | Mycobacterium tuberculosis strain MIC90, RpoBS531L [2]: 0.55 µM
